Like-named read-outs stand apart in the source and are kept apart here.
Legend:
dominant rats [1] = details: administered to dominant rats, literature; cited from earlier work
submissive rats [2] = experiment: Reduction of Submissive Behavior Model (RSBM) of depression, dominant-submissive rat food competition test; assay type: in vivo, Sprague-Dawley rats
From the text: (§1) In this study, the effects of COMPOUND #7 on dominant or submissive behavior in pairs of rats competing for food are examined. It has been shown that anti-manic drugs, including anticonvulsants, decrease dominance and antidepressant drugs reduce submissiveness. This model uses dominant behavior as a model of mania and submissive behavior as a model of depression. The dominance and submissiveness is defined in a competition test and measured as the relative success of two food-restricted rats to gain access to a feeder. Rats are randomly paired and placed in an apparatus allowing them to compete for a food reward. The dominant-submissive relationship develops over a 2-week period. The submissive or dominant animals in pairs selected after 2 weeks of training were treated orally […] (b.i.d.) with COMPOUND #7 at 3 or 30 mg/kg for 5 weeks. The partner of the drug-treated animal was treated with vehicle.
(§2) The objective of this study was to determine if COMPOUND #7 active in the Reduction of Submissive Behavior Model (RSBM) of depression and the Reduction of Dominant Behavior Model (RDBM) of mania. Measurements were made at two doses (3 and 30 mg/kg) after oral twice a day (b.i.d.) administration. The effect of the drug in the RSBM was compared to the effect of fluoxetine (10 mg/kg) and vehicle (0.5% methylcellulose). The effect of the drug in the RDBM was compared with the effect of lithium (100 mg/kg) and vehicle (0.5% methylcellulose). The endpoints measured were the development of a significant reduction of submissive or dominant behavior and its time of onset.
The DSR developed by two rats competing for food uses the apparatus in FIG. 1. The methodology and equipment are described in several publications; (See: Malatynska E, Goldenberg R, Shuck L, Haque A, Zamecki P, Crites G, Schindler N, Knapp R J. Reduction of submissive behavior in rats: a test for antidepressant drug activity. Pharmacology 2002; 64:8; Malatynska E, Rapp R, Crites G. Dominant behavior measured in a competition test as a model of mania. In: International Behavioral Neuroscience Society Meeting, ed. IBNSCapri, Italy, 2002, p 26; Carpenter L L, Leon Z, Yasmin S, Price L H. Do obese depressed patients respond to topiramate? A retrospective chart review. J Affect Disord 2002; 69:251; McElroy S L, Zarate C A, Cookson J, Suppes T, Huffman R F, Greene P, Ascher J. A 52-week, open-label continuation study of lamotrigine in the treatment of bipolar depression. J Clin Psychiatry 2004; 65:204; Bonnet U. Moclobemide: therapeutic use and clinical studies. CNS Drug Rev 2003; 9:97; Danysz W, Plaznik A, Kostowski W, Malatynska E, Jarbe T U, Hiltunen A J, Archer T. Comparison of desipramine, amitriptyline, zimeldine and alaproclate in six animal models used to investigate antidepressant drugs. Pharmacol Toxicol 1988; 62:42; Knapp R J, Goldenberg R, Shuck C, Cecil A, Watkins J, Miller C, Crites G, Malatynska E. Antidepressant activity of memory-enhancing drugs in the reduction of submissive behavior model. Eur J Pharmacol 2002; 440:27; Kostowski W, Malatynska E, Plaznik A, Dyr W, Danysz W. Comparative studies on antidepressant action of alprazolam in different animal models. Pol J Pharmacol Pharm 1986; 38, 471 and Malatynska E, De Leon I, Allen D, Yamamura H I. Effects of amitriptyline on GABA-stimulated ^36Cl^− uptake in relation to a behavioral model of depression. Brain Res Bull 1995; 37:53) In the experiments described in this report Sprague-Dawley rats weighing 160 to 180 g were used. […]

submissive rats [3] = details: literature, cited from earlier work
dominant rats [4] = experiment: Reduction of Dominant Behavior Model (RDBM) of mania, dominant-submissive rat food competition test; assay type: in vivo, Sprague-Dawley rats
From the text: as §1, §2
The DSR developed by two rats competing for food uses the apparatus in FIG. 1. The methodology and equipment are described in several publications; (See: Malatynska E, Goldenberg R, Shuck L, Haque A, Zamecki P, Crites G, Schindler N, Knapp R J. Reduction of submissive behavior in rats: a test for antidepressant drug activity. Pharmacology 2002; 64:8; Malatynska E, Rapp R, Crites G. Dominant behavior measured in a competition test as a model of mania. In: International Behavioral Neuroscience Society Meeting, ed. IBNSCapri, Italy, 2002, p 26; Carpenter L L, Leon Z, Yasmin S, Price L H. Do obese depressed patients respond to topiramate? A retrospective chart review. J Affect Disord 2002; 69:251; McElroy S L, Zarate C A, Cookson J, Suppes T, Huffman R F, Greene P, Ascher J. A 52-week, open-label continuation study of lamotrigine in the treatment of bipolar depression. J Clin Psychiatry 2004; 65:204; Bonnet U. Moclobemide: therapeutic use and clinical studies. CNS Drug Rev 2003; 9:97; Danysz W, Plaznik A, Kostowski W, Malatynska E, Jarbe T U, Hiltunen A J, Archer T. Comparison of desipramine, amitriptyline, zimeldine and alaproclate in six animal models used to investigate antidepressant drugs. […]

Male CF-1 mice = experiment: Forced swimming test in mice (behavioral despair); assay type: in vivo; details: 1 h before test; for reduction in immobility: 4-minute test period
From the text: Porsolt (1977) proposed a model for screening antidepressants in mice, called the “behavioral despair” test. (See, Porsolt, R D et al. Behavioral despair in mice: A preliminary screening test for antidepressants. Arch Int Pharmacodyn Ther 229; 327-336:1977 and Porsolt, R D et al. Behavioral despair in rats: a new model sensitive to antidepressant treatments, Eur. J. Pharmacol., 47, 379-391, 1978). This test is also called the forced swim test In this test, a mouse is placed in a container of water and swims, apparently trying to escape. The animal then alternates periods of swimming and floating, i.e., remaining immobile. Antidepressants are among those drugs that reduce the periods of immobility. In the present report COMPOUND #7 was tested in the forced swimming procedure in mice to determine whether the compound had any potential antidepressant activity.
Male CF-1 mice (18-22 g) were purchased from Charles River Breeding Laboratories, Kingston, N.Y. Animals were housed in standing wire cages with free access to food and water. Experiments were initiated only after an acclimation period of at least 3 days to the animal room environment which consisted of automatically controlled illumination with a 12-hour light/dark cycle and controlled temperature and relative humidity.
COMPOUND #7 was dissolved in 30% polyethylene glycol 400 in deionized water and administered to animals by oral gavage in a volume of 0.1 ml/10 g body weight.
The method was similar to that described by Porsolt et al. (1977)1 with minor modifications (See, Porsolt R D, Bertin A, Jalfre M. Behavioral despair in mice: A preliminary screening test for antidepressants. Arch Int Pharmacodyn Ther 229; 327-336:1977)
Mice were pre-swum the day before the test for 5 minutes. On the test day, mice were dosed orally with either test compound or vehicle. One hour later each animal was placed in a glass cylinder (1000-ml beaker; height 14 cm, diameter 11.5 cm) containing water up to a height of 9 cm (water temperature at 25° C.). Following a 2-minute pretest, immobility of each mouse was recorded for a 4-minute test period. Immobility was defined as the animal making only those movements to stay afloat, especially combined with lack of movement of its hind legs. Each group consisted of 8 mice.

Male NMRI mice = experiment: Mouse tail suspension test (TST); assay type: in vivo
Protocol: The tail suspension test (TST) is an acute test which is predictive of anti-depressant activity of a test compound. (See, Steru, L. et al. Psychopharmacology, 85, 367-370, 1985)
Male NMRI mice (22-26 g; n=12 mice per dose) is given a single dose of vehicle (aqueous solution of 1 equivalent tartaric acid+0.45% NaCl+10% cyclodextrin, i.p.), imipramine (128 mg/kg, p.o. in an aqueous solution of 0.9% NaCl) or COMPOUND #7 (at 1, 3 AND 30 mg/kg, p.o.) 60 min prior to tail suspension. All substances were administered in a volume of […]. In this test, the mice are submitted to an unpleasant and inescapable situation (i.e. hanging by the tail) for 6 min. Once suspended, motor activity diminishes rapidly and the mice become immobile. A compound is considered active as an antidepressant in this model, when there is a reduction in immobility time. Viewpoint video-tracking software is utilized to record immobility time.

[5] = tested on: Male rats of Wistar (Han) strain; experiment: Behavioral despair or forced swim test in the rat; assay type: in vivo; details: 4 hours and 60 minutes before the test, 5 minute test
From the text: The behavioral despair or forced swim test (FST) in rats as in mice (see Example 2) is an acute test of anti-depressant activity. Antidepressant-like compounds are known to be active in this assay (e.g., tricyclics, MAO inhibitors, SSRIs), although activity can vary with mouse strain differences, as would be known to one of skill in the art. (See, Porsolt, R D et al. Behavioral despair in rats: a new model sensitive to antidepressant treatments, Eur. J. Pharmacol., 47, 379-391, 1978) and also (see; Porsolt, R D et al. Behavioral despair in mice: A preliminary screening test for antidepressants. Arch Int Pharmacodyn Ther 229; 327-336:1977)
The assay procedure is as follows. Male rats of Wistar (Han) strain, 185-245 g body weight supplied by Elevage Janvier, 53940 Le Genest-Saint-Isle, France were used. These animals were administered 1, 3 and 30 mg/kg of COMPOUND #7 p.o. 24 hours, 4 hours and 60 minutes before the test. Active control animals were given imipramine 64 mg/kg under the same conditions. […] Imipramine at 64 mg/kg administered under the same experimental conditions decreased the duration of immobility by 44% as compared to vehicle.

[6] = treatment of the submissive subject for 3 weeks

Compound: CCCC(CCC)C(=O)[O-].[Na+] [sodium valproate]
- effect on competitive behavior of dominant rats (dominant rats [1]): significantly reduced competitive behavior

Compound: NC(=O)N1c2ccccc2C=Cc2ccccc21 [carbamazepine]
- effect on competitive behavior of dominant rats (dominant rats [1]): significantly reduced competitive behavior

Compound: CNCCC(Oc1ccc(C(F)(F)F)cc1)c1ccccc1 (stereo not shown) [fluoxetine, reference compound]
- onset of significant effect in submissive rats (treatment time) (submissive rats [2]; 10 mg/kg i.p. once a day, previous experimental set): 3 weeks
- effect on submissive behavior (submissive rats [3]; [6]): reduced submissive behavior

Compound: CNCCCN1c2ccccc2CCc2ccccc21 [desipramine]
- effect on submissive behavior (submissive rats [3]; [6]): reduced submissive behavior

Compound: NC(=O)OC[C@@H](O)c1ccccc1Cl [COMPOUND #7]
- onset of significant decrease of dominant rat performance (treatment time) (dominant rats [4]; 3 mg/kg b.i.d. p.o.): 3 weeks
- effect on performance of dominant rats (time spent on feeder) (dominant rats [4]; 3 mg/kg b.i.d. p.o. for 5 weeks, dominant rat treated, partner vehicle): decreased the performance of dominant rats
- onset of increased competitiveness of dominant rats (treatment time) (dominant rats [4]; 30 mg/kg b.i.d. p.o.): 2 weeks
- effect on competitiveness of dominant rats (dominant rats [4]; 30 mg/kg b.i.d. p.o. for 5 weeks, vs vehicle treated dominant rats): significantly increased the competitiveness
- reduction in immobility (Male CF-1 mice; 1 mg/kg oral): 25%
- reduction in immobility (Male CF-1 mice; 3 mg/kg oral): 28%
- reduction in immobility (Male CF-1 mice; 10 mg/kg oral): 43%
- reduction in immobility (significance) (Male CF-1 mice; 17.3 mg/kg oral): not significant
- reduction in immobility (significance) (Male CF-1 mice; 30 mg/kg oral): not significant
- effect on duration of immobility (Male NMRI mice; 1, 3 and 30 mg/kg p.o. 60 minutes before the test): did not affect the duration of immobility
- effect on duration of immobility ([5]; 1, 3 and 30 mg/kg p.o. 24 hours): did not affect the duration of immobility
- effect on submissive rat behavior (time spent on feeder) (submissive rats [2]; 3 mg/kg b.i.d. p.o. for 5 weeks, submissive rat treated, partner vehicle): did not have any effect
- onset of increased competitiveness of submissive rats (treatment time) (submissive rats [2]; 30 mg/kg b.i.d. p.o.): 1 week
- effect on competitiveness of submissive rat (time spent on feeder, dominance level) (submissive rats [2]; 30 mg/kg b.i.d. p.o. for 5 weeks, vs vehicle-treated submissive rats): significantly increased competitiveness

Compound: CN(C)CCCN1c2ccccc2CCc2ccccc21 [imipramine, reference compound]
- decrease of duration of immobility as compared with control (Male NMRI mice; 128 mg/kg p.o. 60 minutes before the test): −69%
- decrease of duration of immobility as compared to vehicle ([5]; 64 mg/kg p.o. 24 hours): 44%
- effect on submissive behavior (submissive rats [3]; [6]): reduced submissive behavior

Compound: CN1C(=O)CN=C(c2ccccc2)c2cc(Cl)ccc21 [diazepam]
- effect on submissive behavior (submissive rats [3]; treatment of submissive rats, anxiolytic): ineffective

Compound: Clc1cccc(Cl)c1N=C1NCCN1 [clonidine]
- effect on competitive behavior of dominant rats (dominant rats [1]): significantly reduced competitive behavior

Compound: CC(N)Cc1ccccc1 (stereo not shown) [amphetamine, reference compound]
- effect on submissive behavior (submissive rats [2]; treatment of submissive rats, psychostimulant, unpublished observation): ineffective

— US20080317883A1, “METHODS FOR TREATING DEPRESSION” (priority 2006, published 2008)
